Numbers after ± are expanded uncertainties.
Assays:
[1] = mn = molality of the nth substance listed, in mol/kg; details: 298.15 K, 101 kPa, Liquid; for viscosity: Capillary tube (Ostwald / Ubbelohde) method; for mass density: Vibrating tube method
[2] = cn = amount concentration of the nth substance listed, in mol/dm3; details: 298.15 K, 101 kPa, Liquid

C[C@H](N)C(=O)N[C@@H](CCC(N)=O)C(=O)O [L-alanyl-L-glutamine] + O
[1]
Details	mass density [kg/m3]	viscosity [mPa·s]
m1 = 0.0401	999.957 ± 0.093	–
m1 = 0.05	–	0.918 ± 0.037
m1 = 0.08086	1002.88 ± 0.093	–
m1 = 0.1	–	0.948 ± 0.038
m1 = 0.1012	1004.32 ± 0.092	–
m1 = 0.148	1007.6 ± 0.092	–
m1 = 0.15	–	0.978 ± 0.04
m1 = 0.2	–	1.008 ± 0.041
m1 = 0.2002	1011.17 ± 0.092	–
m1 = 0.2448	1014.22 ± 0.091	–
m1 = 0.2993	1017.77 ± 0.091	–

NCC(=O)N[C@@H](CCC(N)=O)C(=O)O [glycyl-l-glutamine] + O
[1]
Details	mass density [kg/m3]	viscosity [mPa·s]
m1 = 0.03879	1000.01 ± 0.096	–
m1 = 0.05	–	0.913 ± 0.037
m1 = 0.06116	1001.7 ± 0.096	–
m1 = 0.08141	1003.22 ± 0.095	–
m1 = 0.1	–	0.936 ± 0.038
m1 = 0.1008	1004.66 ± 0.095	–
m1 = 0.1497	1008.28 ± 0.095	–
m1 = 0.15	–	0.961 ± 0.039
m1 = 0.1987	1011.85 ± 0.095	–
m1 = 0.2	–	0.985 ± 0.04
m1 = 0.2522	1015.68 ± 0.095	–

CC(=O)[O-].[Na+] [sodium ethanoate] + O
[2]
Details	molar conductivity [S·m2/mol]
c1 = 0.0002726	0.0088 ± 8.8e-05
c1 = 0.0004823	0.008807 ± 8.8e-05
c1 = 0.0007722	0.008806 ± 8.8e-05
c1 = 0.0009672	0.00879 ± 8.8e-05
c1 = 0.001191	0.00877 ± 8.8e-05
c1 = 0.001382	0.00872 ± 8.7e-05
c1 = 0.001567	0.008739 ± 8.7e-05
c1 = 0.001787	0.00872 ± 8.7e-05
c1 = 0.002055	0.008701 ± 8.7e-05
c1 = 0.002254	0.00869 ± 8.7e-05
c1 = 0.002454	0.00867 ± 8.7e-05
c1 = 0.003305	0.00849 ± 8.5e-05
c1 = 0.00463	0.00842 ± 8.4e-05
c1 = 0.006134	0.008351 ± 8.3e-05
c1 = 0.007784	0.00829 ± 8.3e-05
c1 = 0.008716	0.00826 ± 8.3e-05
c1 = 0.01014	0.008207 ± 8.2e-05
c1 = 0.01138	0.00817 ± 8.2e-05
c1 = 0.01268	0.008135 ± 8.1e-05
c1 = 0.01404	0.008103 ± 8.1e-05
c1 = 0.01528	0.00808 ± 8.1e-05
c1 = 0.01648	0.00806 ± 8.1e-05
c1 = 0.01789	0.00802 ± 8e-05
c1 = 0.01915	0.008 ± 8e-05
c1 = 0.02025	0.00797 ± 8e-05
c1 = 0.02164	0.007945 ± 7.9e-05
c1 = 0.02337	0.007911 ± 7.9e-05
c1 = 0.02523	0.00787 ± 7.9e-05
c1 = 0.02696	0.007849 ± 7.8e-05

CCCC(=O)[O-].[Na+] [sodium butyrate] + O
[2]
Details	molar conductivity [S·m2/mol]
c1 = 0.0003234	0.00796 ± 8e-05
c1 = 0.001116	0.00795 ± 7.9e-05
c1 = 0.001273	0.007936 ± 7.9e-05
c1 = 0.001488	0.007915 ± 7.9e-05
c1 = 0.00188	0.00788 ± 7.9e-05
c1 = 0.00243	0.007842 ± 7.8e-05
c1 = 0.002454	0.00787 ± 7.9e-05
c1 = 0.003167	0.00766 ± 7.7e-05
c1 = 0.006298	0.007526 ± 7.5e-05
c1 = 0.008849	0.007443 ± 7.4e-05
c1 = 0.01124	0.00737 ± 7.4e-05
c1 = 0.01353	0.007315 ± 7.3e-05
c1 = 0.0155	0.00727 ± 7.3e-05
c1 = 0.01721	0.007239 ± 7.2e-05
c1 = 0.01916	0.007203 ± 7.2e-05
c1 = 0.02091	0.00717 ± 7.2e-05
c1 = 0.02284	0.007137 ± 7.1e-05
c1 = 0.02481	0.0071 ± 7.1e-05
c1 = 0.02647	0.00707 ± 7.1e-05
